Values quoted from earlier work, collected in publication PMC3967229 (Marine Drugs, 2014).
Read-outs that look alike come from different tables or passages of the source. Values belong to the compound of their own block, whether it stands above or below them.

Key:
HCT116 tumor = conditions: i.p.
MDA-MB-231 cells = tested on: MDA-MB-231 cells; set-up: method as in PMID 22543582; conditions: 10 mg/kg/day, together with dexamethasone
[1] = mouse in vivo model
[2] = rabbit in vivo model
[3] = 5 mg/kg/day
[4] = protein-assisted mechanism
[5] = not given; remark: listed apart in the source
[6] = not given; remark: listed apart in the source
[7] = set-up: method as in earlier work

Compound: CCCCCCCC(=O)SCC/C=C/[C@@H]1CC(=O)NCc2nc(cs2)C2=N[C@@](C)(CS2)C(=O)N[C@@H](C(C)C)C(=O)O1 [largazole]
Cellular activity: low-nanomolar
HCT116 tumor growth (HCT116 tumor; colon tumor xenograft mouse model): retarding HCT116 tumor growth
Acute toxicity (HCT116 tumor; up to the highest dose tested (50 mg/kg), mouse): without acute toxicity
Invasiveness of orthotopic MDA-MB-231 tumors (MDA-MB-231 cells): reducing the invasiveness
Bone-forming activity [1]: bone-forming activity
Bone-forming activity [2]: bone-forming activity
Liver fibrosis [3]: decreased liver fibrosis
Conversion to largazole thiol in mouse serum [4]: rapidly converted

Volume of distribution (Vdss) [5]: 22.3 L/kg
Compound: C/C=C1\NC(=O)[C@H]2CSSCC/C=C/[C@H](CC(=O)N[C@H](C(C)C)C(=O)N2)OC(=O)[C@H](C(C)C)NC1=O [romidepsin]

Plasma protein binding, bound to human plasma [6]: 71.3%
Clearance [7]: 55 mL/min/kg
Vdss [7]: 0.6 L/kg
Compound: O=C(CCCCCCC(=O)Nc1ccccc1)NO [vorinostat, Suberoylanilide hydroxamic acid]
Cellular activity: micromolar

Compound: largazole thiol
Potency against HDAC isoforms (HDACs 1, 2 and 3): subnanomolar
